# According to ChEMBL document CHEMBL1201862, “PubChem BioAssay data set” (2004):
#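 Test compounds were applied to cells in 96-well plates for 48 hours at 5 doses. GI50 is the concentration that inhibits growth by half.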 The source made the active and inactive calls. Rule as the data show it: active = GI50 up to about 1.1 µM and inactive = higher.
# Assays:
# Assay in all cases: inhibition of tumour cell growth, NCI panel, 48 h
# SN12C = test system: SN12C
# RPMI-8226 = test system: RPMI-8226
# UO-31 = test system: UO-31
# A549 = test system: A549
# SF-539 = test system: SF-539
# SK-MEL-2 = test system: SK-MEL-2
# TK-10 = test system: TK-10
# HOP-62 = test system: HOP-62
# HT-29 = test system: HT-29
# SK-MEL-5 = test system: SK-MEL-5
# CCRF-CEM = test system: CCRF-CEM
# SNB-75 = test system: SNB-75
# LOX IMVI = test system: LOX IMVI
# UACC-257 = test system: UACC-257
# UACC-62 = test system: UACC-62
# COLO 205 = test system: COLO 205
# XF498 = test system: XF498
# OVCAR-4 = test system: OVCAR-4
# NCI-H460 = test system: NCI-H460
# DMS-273 = test system: DMS-273
# SK-OV-3 = test system: SK-OV-3
# OVCAR-3 = test system: OVCAR-3
# NCI-H23 = test system: NCI-H23
# SW-620 = test system: SW-620
# ACHN = test system: ACHN
# HL-60 = test system: HL-60
# OVCAR-8 = test system: OVCAR-8
# HOP-18 = test system: HOP-18
# A498 = test system: A498
# EKVX = test system: EKVX
# HCT-116 = test system: HCT-116
# HCC 2998 = test system: HCC 2998
# HOP-92 = test system: HOP-92
# RXF 393 = test system: RXF 393
# K562 = test system: K562
# MOLT-4 = test system: MOLT-4
# Malme-3M = test system: Malme-3M
# SR = test system: SR
# M14 = test system: M14
# DLD-1 = test system: DLD-1
# SNB-19 = test system: SNB-19
# CAKI-1 = test system: CAKI-1
# HCT-15 = test system: HCT-15
# NCI-H226 = test system: NCI-H226
# KM12 = test system: KM12
# IGROV-1 = test system: IGROV-1
# U-251 = test system: U-251
# SF-268 = test system: SF-268
# LXFL 529 = test system: LXFL 529
# SK-MEL-28 = test system: SK-MEL-28
# KM-20L2 = test system: KM-20L2
# 786-0 = test system: 786-0
# OVCAR-5 = test system: OVCAR-5
# RXF 631 = test system: RXF 631
# SF-295 = test system: SF-295
# NCI-H522 = test system: NCI-H522
# DMS-114 = test system: DMS-114
# M19-MEL = test system: M19-MEL
# SNB-78 = test system: SNB-78
structure (smiles),measurement,setting,value
N#CC12C3C4CC5C6C4C1C6C(O)(C53)N2Cc1ccccc1 (centres undefined),GI50,SN12C,> 100 µM (inactive)
same,GI50,RPMI-8226,> 100 µM (inactive)
same,GI50,UO-31,> 100 µM (inactive)
same,GI50,A549,> 100 µM (inactive)
same,GI50,SF-539,> 100 µM (inactive)
same,GI50,SK-MEL-2,> 100 µM (inactive)
same,GI50,TK-10,> 100 µM (inactive)
same,GI50,HOP-62,> 100 µM (inactive)
same,GI50,HT-29,> 100 µM (inactive)
same,GI50,SK-MEL-5,> 100 µM (inactive)
same,GI50,CCRF-CEM,> 100 µM (inactive)
same,GI50,SNB-75,> 100 µM (inactive)
same,GI50,LOX IMVI,> 100 µM (inactive)
same,GI50,UACC-257,> 100 µM (inactive)
same,GI50,UACC-62,> 100 µM (inactive)
same,GI50,COLO 205,> 100 µM (inactive)
same,GI50,XF498,> 100 µM (inactive)
same,GI50,OVCAR-4,> 100 µM (inactive)
same,GI50,NCI-H460,> 100 µM (inactive)
same,GI50,DMS-273,> 100 µM (inactive)
same,GI50,SK-OV-3,> 100 µM (inactive)
same,GI50,OVCAR-3,> 100 µM (inactive)
same,GI50,NCI-H23,> 100 µM (inactive)
same,GI50,SW-620,> 100 µM (inactive)
same,GI50,ACHN,> 100 µM (inactive)
same,GI50,HL-60,> 100 µM (inactive)
same,GI50,OVCAR-8,> 100 µM (inactive)
same,GI50,HOP-18,> 100 µM (inactive)
same,GI50,A498,> 100 µM (inactive)
same,GI50,EKVX,> 100 µM (inactive)
same,GI50,HCT-116,> 100 µM (inactive)
same,GI50,HCC 2998,> 100 µM (inactive)
same,GI50,HOP-92,> 100 µM (inactive)
same,GI50,RXF 393,> 100 µM (inactive)
same,GI50,K562,> 100 µM (inactive)
same,GI50,MOLT-4,> 100 µM (inactive)
same,GI50,Malme-3M,> 100 µM (inactive)
same,GI50,SR,> 100 µM (inactive)
same,GI50,M14,> 100 µM (inactive)
same,GI50,DLD-1,> 100 µM (inactive)
same,GI50,SNB-19,> 100 µM (inactive)
same,GI50,CAKI-1,> 100 µM (inactive)
same,GI50,HCT-15,> 100 µM
same,GI50,NCI-H226,> 100 µM (inactive)
same,GI50,KM12,> 100 µM (inactive)
same,GI50,IGROV-1,> 100 µM (inactive)
same,GI50,U-251,> 100 µM (inactive)
same,GI50,SF-268,> 100 µM (inactive)
same,GI50,LXFL 529,> 100 µM (inactive)
same,GI50,SK-MEL-28,> 100 µM (inactive)
same,GI50,KM-20L2,> 100 µM (inactive)
same,GI50,786-0,> 100 µM (inactive)
same,GI50,OVCAR-5,> 100 µM (inactive)
same,GI50,RXF 631,> 100 µM (inactive)
same,GI50,SF-295,> 100 µM (inactive)
same,GI50,NCI-H522,> 100 µM (inactive)
same,GI50,DMS-114,> 100 µM (inactive)
COC(=O)c1cc2ccccc2c2nc3ccccc3c(Cl)c12,GI50,SN12C,> 100 µM (inactive)
same,GI50,RPMI-8226,> 100 µM (inactive)
same,GI50,A549,> 100 µM (inactive)
same,GI50,SF-539,16.6 µM (inactive)
same,GI50,SK-MEL-2,> 100 µM (inactive)
same,GI50,TK-10,> 100 µM (inactive)
same,GI50,HOP-62,> 100 µM (inactive)
same,GI50,HT-29,> 100 µM (inactive)
same,GI50,SK-MEL-5,> 100 µM (inactive)
same,GI50,CCRF-CEM,> 100 µM (inactive)
same,GI50,SNB-75,98.4 µM (inactive)
same,GI50,M19-MEL,> 100 µM (inactive)
same,GI50,LOX IMVI,> 100 µM (inactive)
same,GI50,UACC-257,> 100 µM (inactive)
same,GI50,UACC-62,> 100 µM (inactive)
same,GI50,COLO 205,> 100 µM (inactive)
same,GI50,XF498,> 100 µM (inactive)
same,GI50,OVCAR-4,> 100 µM (inactive)
same,GI50,DMS-273,> 100 µM (inactive)
same,GI50,OVCAR-3,> 100 µM (inactive)
same,GI50,NCI-H23,> 100 µM (inactive)
same,GI50,SW-620,> 100 µM (inactive)
same,GI50,ACHN,> 100 µM (inactive)
same,GI50,HL-60,> 100 µM (inactive)
same,GI50,OVCAR-8,> 100 µM (inactive)
same,GI50,A498,> 100 µM (inactive)
same,GI50,EKVX,> 100 µM (inactive)
same,GI50,HCT-116,87.1 µM (inactive)
same,GI50,HCC 2998,> 100 µM (inactive)
same,GI50,HOP-92,> 100 µM (inactive)
same,GI50,RXF 393,> 100 µM (inactive)
same,GI50,K562,> 100 µM (inactive)
same,GI50,MOLT-4,> 100 µM (inactive)
same,GI50,Malme-3M,> 100 µM (inactive)
same,GI50,SR,51.8 µM (inactive)
same,GI50,M14,> 100 µM (inactive)
same,GI50,DLD-1,> 100 µM (inactive)
same,GI50,SNB-19,37.4 µM (inactive)
same,GI50,CAKI-1,> 100 µM (inactive)
same,GI50,HCT-15,> 100 µM
same,GI50,KM12,> 100 µM (inactive)
same,GI50,IGROV-1,> 100 µM (inactive)
same,GI50,U-251,> 100 µM (inactive)
same,GI50,SF-268,> 100 µM (inactive)
same,GI50,LXFL 529,> 100 µM (inactive)
same,GI50,SK-MEL-28,> 100 µM (inactive)
same,GI50,KM-20L2,11.4 µM (inactive)
same,GI50,786-0,> 100 µM (inactive)
same,GI50,RXF 631,> 100 µM (inactive)
same,GI50,SF-295,> 100 µM (inactive)
same,GI50,NCI-H522,32.9 µM (inactive)
same,GI50,DMS-114,> 100 µM (inactive)
CC1=CC[C@@H](C(C)(C)O)C[C@@H]1O,GI50,SN12C,> 5000 µM (inactive)
same,GI50,UO-31,> 5000 µM (inactive)
same,GI50,A549,> 5000 µM (inactive)
same,GI50,SF-539,> 5000 µM (inactive)
same,GI50,SK-MEL-2,> 5000 µM (inactive)
same,GI50,TK-10,> 5000 µM (inactive)
same,GI50,HOP-62,> 5000 µM (inactive)
same,GI50,HT-29,> 5000 µM (inactive)
same,GI50,SK-MEL-5,> 5000 µM (inactive)
same,GI50,CCRF-CEM,> 5000 µM (inactive)
same,GI50,SNB-75,> 5000 µM (inactive)
same,GI50,M19-MEL,> 5000 µM (inactive)
same,GI50,LOX IMVI,> 5000 µM (inactive)
same,GI50,UACC-257,> 5000 µM (inactive)
same,GI50,UACC-62,> 5000 µM (inactive)
same,GI50,COLO 205,> 5000 µM (inactive)
same,GI50,XF498,> 5000 µM (inactive)
same,GI50,OVCAR-4,> 5000 µM (inactive)
same,GI50,NCI-H460,> 5000 µM (inactive)
same,GI50,SK-OV-3,> 5000 µM (inactive)
same,GI50,OVCAR-3,> 5000 µM (inactive)
same,GI50,NCI-H23,> 5000 µM (inactive)
same,GI50,SW-620,> 5000 µM (inactive)
same,GI50,ACHN,> 5000 µM (inactive)
same,GI50,HL-60,3940 µM (inactive)
same,GI50,OVCAR-8,> 5000 µM (inactive)
same,GI50,A498,> 5000 µM (inactive)
same,GI50,EKVX,> 5000 µM (inactive)
same,GI50,HCT-116,> 5000 µM (inactive)
same,GI50,HCC 2998,> 5000 µM (inactive)
same,GI50,HOP-92,> 5000 µM (inactive)
same,GI50,RXF 393,> 5000 µM (inactive)
same,GI50,SNB-78,> 5000 µM (inactive)
same,GI50,K562,> 5000 µM (inactive)
same,GI50,MOLT-4,> 5000 µM (inactive)
same,GI50,Malme-3M,> 5000 µM (inactive)
same,GI50,SR,> 5000 µM (inactive)
same,GI50,M14,> 5000 µM (inactive)
same,GI50,DLD-1,> 5000 µM (inactive)
same,GI50,SNB-19,> 5000 µM (inactive)
same,GI50,HCT-15,> 5000 µM
same,GI50,NCI-H226,> 5000 µM (inactive)
same,GI50,KM12,> 5000 µM (inactive)
same,GI50,IGROV-1,> 5000 µM (inactive)
same,GI50,U-251,> 5000 µM (inactive)
same,GI50,SF-268,> 5000 µM (inactive)
same,GI50,LXFL 529,> 5000 µM (inactive)
same,GI50,SK-MEL-28,> 5000 µM (inactive)
same,GI50,KM-20L2,> 5000 µM (inactive)
same,GI50,786-0,> 5000 µM (inactive)
same,GI50,OVCAR-5,> 5000 µM (inactive)
same,GI50,RXF 631,> 5000 µM (inactive)
same,GI50,SF-295,> 5000 µM (inactive)
same,GI50,NCI-H522,> 5000 µM (inactive)
same,GI50,DMS-114,> 5000 µM (inactive)
